Experimental data: BigSolDB 2.1

On1nnc2ccccc21
Settings | solubility (mole fraction)
in 1,4-dioxane, 288.15 K | 0.0145
in 1,4-dioxane, 290.65 K | 0.0158
in 1,4-dioxane, 293.15 K | 0.0171
in 1,4-dioxane, 295.65 K | 0.0187
in 1,4-dioxane, 298.15 K | 0.0202
in 1,4-dioxane, 300.65 K | 0.0225
in 1,4-dioxane, 303.15 K | 0.0247
in 1,4-dioxane, 305.65 K | 0.0272
in 1,4-dioxane, 308.15 K | 0.0298
in 1,4-dioxane, 310.65 K | 0.0331
in 1,4-dioxane, 313.15 K | 0.0364
in 2-butanone, 278.15 K | 0.0157
in 2-butanone, 280.65 K | 0.0169
in 2-butanone, 283.15 K | 0.0181
in 2-butanone, 285.65 K | 0.0195
in 2-butanone, 288.15 K | 0.021
in 2-butanone, 290.65 K | 0.0225
in 2-butanone, 293.15 K | 0.0241
in 2-butanone, 295.65 K | 0.0259
in 2-butanone, 298.15 K | 0.0278
in 2-butanone, 300.65 K | 0.0299
in 2-butanone, 303.15 K | 0.0323
in 2-butanone, 305.65 K | 0.0347
in 2-butanone, 308.15 K | 0.0372
in 2-butanone, 310.65 K | 0.0402
in 2-butanone, 313.15 K | 0.0433
in DMF, 278.15 K | 0.0412
in DMF, 280.65 K | 0.0464
in DMF, 283.15 K | 0.0522
in DMF, 285.65 K | 0.0587
in DMF, 288.15 K | 0.0646
in DMF, 290.65 K | 0.072
in DMF, 293.15 K | 0.0794
in DMF, 295.65 K | 0.0884
in DMF, 298.15 K | 0.098
in DMF, 300.65 K | 0.109
in DMF, 303.15 K | 0.121
in DMF, 305.65 K | 0.134
in DMF, 308.15 K | 0.148
in DMF, 310.65 K | 0.164
in DMF, 313.15 K | 0.18
in DMSO, 278.15 K | 0.0337
in DMSO, 280.65 K | 0.0377
in DMSO, 283.15 K | 0.0421
in DMSO, 285.65 K | 0.0475
in DMSO, 288.15 K | 0.0529
in DMSO, 290.65 K | 0.0592
in DMSO, 293.15 K | 0.0664
in DMSO, 295.65 K | 0.0738
in DMSO, 298.15 K | 0.082
in DMSO, 300.65 K | 0.0921
in DMSO, 303.15 K | 0.103
in DMSO, 305.65 K | 0.114
in DMSO, 308.15 K | 0.128
in DMSO, 310.65 K | 0.142
in DMSO, 313.15 K | 0.157
in acetone, 278.15 K | 0.0139
in acetone, 280.65 K | 0.0149
in acetone, 283.15 K | 0.016
in acetone, 285.65 K | 0.0171
in acetone, 288.15 K | 0.0184
in acetone, 290.65 K | 0.0198
in acetone, 293.15 K | 0.0214
in acetone, 295.65 K | 0.0229
in acetone, 298.15 K | 0.0246
in acetone, 300.65 K | 0.0266
in acetone, 303.15 K | 0.0285
in acetone, 305.65 K | 0.0306
in acetone, 308.15 K | 0.033
in acetone, 310.65 K | 0.0355
in acetone, 313.15 K | 0.0383
in acetonitrile, 278.15 K | 0.00229
in acetonitrile, 280.65 K | 0.00249
in acetonitrile, 283.15 K | 0.00271
in acetonitrile, 285.65 K | 0.00295
in acetonitrile, 288.15 K | 0.00322
in acetonitrile, 290.65 K | 0.00348
in acetonitrile, 293.15 K | 0.0038
in acetonitrile, 295.65 K | 0.00414
in acetonitrile, 298.15 K | 0.00449
in acetonitrile, 300.65 K | 0.00488
in acetonitrile, 303.15 K | 0.00531
in acetonitrile, 305.65 K | 0.0058
in acetonitrile, 308.15 K | 0.00631
in acetonitrile, 310.65 K | 0.00685
in acetonitrile, 313.15 K | 0.00749
in ethanol, 278.15 K | 0.0318
in ethanol, 280.65 K | 0.0331
in ethanol, 283.15 K | 0.0355
in ethanol, 285.65 K | 0.0377
in ethanol, 288.15 K | 0.0406
in ethanol, 290.65 K | 0.0433
in ethanol, 293.15 K | 0.0462
in ethanol, 295.65 K | 0.0493
in ethanol, 298.15 K | 0.0528
in ethanol, 300.65 K | 0.0566
in ethanol, 303.15 K | 0.0605
in ethanol, 305.65 K | 0.0651
in ethanol, 308.15 K | 0.0697
in ethanol, 310.65 K | 0.0746
in ethanol, 313.15 K | 0.0802
in ethyl acetate, 278.15 K | 0.00505
in ethyl acetate, 280.65 K | 0.00555
in ethyl acetate, 283.15 K | 0.00606
in ethyl acetate, 285.65 K | 0.00676
in ethyl acetate, 288.15 K | 0.00745
in ethyl acetate, 290.65 K | 0.00821
in ethyl acetate, 293.15 K | 0.00908
in ethyl acetate, 295.65 K | 0.0101
in ethyl acetate, 298.15 K | 0.0115
in ethyl acetate, 300.65 K | 0.013
in ethyl acetate, 303.15 K | 0.0149
in ethyl acetate, 305.65 K | 0.0169
in ethyl acetate, 308.15 K | 0.0193
in ethyl acetate, 310.65 K | 0.0219
in ethyl acetate, 313.15 K | 0.0247
in isooctanol, 278.15 K | 0.0108
in isooctanol, 280.65 K | 0.0112
in isooctanol, 283.15 K | 0.0115
in isooctanol, 285.65 K | 0.0119
in isooctanol, 288.15 K | 0.0123
in isooctanol, 290.65 K | 0.0127
in isooctanol, 293.15 K | 0.0132
in isooctanol, 295.65 K | 0.0137
in isooctanol, 298.15 K | 0.0143
in isooctanol, 300.65 K | 0.0149
in isooctanol, 303.15 K | 0.0154
in isooctanol, 305.65 K | 0.0161
in isooctanol, 308.15 K | 0.0168
in isooctanol, 310.65 K | 0.0175
in isooctanol, 313.15 K | 0.0182
in isopentanol, 278.15 K | 0.0109
in isopentanol, 280.65 K | 0.0114
in isopentanol, 283.15 K | 0.0118
in isopentanol, 285.65 K | 0.0123
in isopentanol, 288.15 K | 0.0127
in isopentanol, 290.65 K | 0.0132
in isopentanol, 293.15 K | 0.0137
in isopentanol, 295.65 K | 0.0143
in isopentanol, 298.15 K | 0.0148
in isopentanol, 300.65 K | 0.0155
in isopentanol, 303.15 K | 0.0161
in isopentanol, 305.65 K | 0.0167
in isopentanol, 308.15 K | 0.0174
in isopentanol, 310.65 K | 0.0181
in isopentanol, 313.15 K | 0.0188
in isopropanol, 278.15 K | 0.0248
in isopropanol, 280.65 K | 0.0261
in isopropanol, 283.15 K | 0.0281
in isopropanol, 285.65 K | 0.0301
in isopropanol, 288.15 K | 0.032
in isopropanol, 290.65 K | 0.0341
in isopropanol, 293.15 K | 0.0367
in isopropanol, 295.65 K | 0.0392
in isopropanol, 298.15 K | 0.0421
in isopropanol, 300.65 K | 0.0451
in isopropanol, 303.15 K | 0.0481
in isopropanol, 305.65 K | 0.0515
in isopropanol, 308.15 K | 0.0553
in isopropanol, 310.65 K | 0.0592
in isopropanol, 313.15 K | 0.0637
in methanol, 278.15 K | 0.0223
in methanol, 280.65 K | 0.0239
in methanol, 283.15 K | 0.0254
in methanol, 285.65 K | 0.0274
in methanol, 288.15 K | 0.0294
in methanol, 290.65 K | 0.0314
in methanol, 293.15 K | 0.0336
in methanol, 295.65 K | 0.0358
in methanol, 298.15 K | 0.0386
in methanol, 300.65 K | 0.0415
in methanol, 303.15 K | 0.0445
in methanol, 305.65 K | 0.048
in methanol, 308.15 K | 0.0522
in methanol, 310.65 K | 0.0562
in methanol, 313.15 K | 0.0609
in n-heptanol, 278.15 K | 0.0119
in n-heptanol, 280.65 K | 0.0123
in n-heptanol, 283.15 K | 0.0129
in n-heptanol, 285.65 K | 0.0134
in n-heptanol, 288.15 K | 0.014
in n-heptanol, 290.65 K | 0.0146
in n-heptanol, 293.15 K | 0.0152
in n-heptanol, 295.65 K | 0.0158
in n-heptanol, 298.15 K | 0.0165
in n-heptanol, 300.65 K | 0.0173
in n-heptanol, 303.15 K | 0.0182
in n-heptanol, 305.65 K | 0.019
in n-heptanol, 308.15 K | 0.02
in n-heptanol, 310.65 K | 0.021
in n-heptanol, 313.15 K | 0.022
in n-hexanol, 278.15 K | 0.0114
in n-hexanol, 280.65 K | 0.0118
in n-hexanol, 283.15 K | 0.0123
in n-hexanol, 285.65 K | 0.0129
in n-hexanol, 288.15 K | 0.0134
in n-hexanol, 290.65 K | 0.0139
in n-hexanol, 293.15 K | 0.0145
in n-hexanol, 295.65 K | 0.0152
in n-hexanol, 298.15 K | 0.0159
in n-hexanol, 300.65 K | 0.0166
in n-hexanol, 303.15 K | 0.0174
in n-hexanol, 305.65 K | 0.0182
in n-hexanol, 308.15 K | 0.019
in n-hexanol, 310.65 K | 0.0198
in n-hexanol, 313.15 K | 0.0206
in n-propanol, 278.15 K | 0.0297
in n-propanol, 280.65 K | 0.0319
in n-propanol, 283.15 K | 0.034
in n-propanol, 285.65 K | 0.0362
in n-propanol, 288.15 K | 0.0387
in n-propanol, 290.65 K | 0.0412
in n-propanol, 293.15 K | 0.044
in n-propanol, 295.65 K | 0.0472
in n-propanol, 298.15 K | 0.0502
in n-propanol, 300.65 K | 0.0535
in n-propanol, 303.15 K | 0.0573
in n-propanol, 305.65 K | 0.0612
in n-propanol, 308.15 K | 0.0655
in n-propanol, 310.65 K | 0.0698
in n-propanol, 313.15 K | 0.0749
in toluene, 278.15 K | 1.1e-05
in toluene, 280.65 K | 1.2e-05
in toluene, 283.15 K | 1.5e-05
in toluene, 285.65 K | 1.61e-05
in toluene, 288.15 K | 1.99e-05
in toluene, 290.65 K | 2.17e-05
in toluene, 293.15 K | 2.49e-05
in toluene, 295.65 K | 2.85e-05
in toluene, 298.15 K | 3.26e-05
in toluene, 300.65 K | 3.61e-05
in toluene, 303.15 K | 4.28e-05
in toluene, 305.65 K | 4.87e-05
in toluene, 308.15 K | 5.56e-05
in toluene, 310.65 K | 6.2e-05
in toluene, 313.15 K | 6.92e-05
